Measured values reported in US8895474B2, “Herbicidally active cyclopentanediones and derivatives thereof, and their use in controlling weeds” (Syngenta Limited, priority 2009, dated 2014).

Key:
Format in all cases: in vivo
Details in all cases: 312 h, rate 250 g/ha, evaluated after 13 days, 100=total damage to plant, 0=no damage to plant
Avena fatua (AVEFA) [1] = test: Pre-emergence herbicidal activity, glasshouse pot test
How it was run: (§1)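 Pre-emergence spray applied one day after sowing in standard soil, using an aqueous dilution of an acetone/water (50:50) formulation with 0.5% Tween 20. Evaluation on a 0–100 damage scale after 13 days of glasshouse growth.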

Lolium perenne (LOLPE) [2] = test: as above
How it was run: as §1

[3] = tested on: Echinochloa crus-galli (ECHCG); test: as above
How it was run: as §1

[4] = tested on: Alopecurus myosuroides (ALOMY); test: as above
How it was run: as §1

Avena fatua (AVEFA) [5] = test: Post-emergence herbicidal activity, glasshouse pot test
How it was run: (§2)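 Post-emergence spray at 8 d after sowing, then 13 d glasshouse growth before scoring percent damage (0–100).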

Lolium perenne (LOLPE) [6] = test: as above
How it was run: as §2

[7] = tested on: Echinochloa crus-galli (ECHCG); test: as above
How it was run: as §2

[8] = tested on: Alopecurus myosuroides (ALOMY); test: as above
How it was run: as §2

Row | Compound | pest or weed control at 250 g/ha (Avena fatua (AVEFA) [1]) | pest or weed control at 250 g/ha (Lolium perenne (LOLPE) [2]) | pest or weed control at 250 g/ha [3] | pest or weed control at 250 g/ha [4] | pest or weed control at 250 g/ha (Avena fatua (AVEFA) [5]) | pest or weed control at 250 g/ha (Lolium perenne (LOLPE) [6]) | pest or weed control at 250 g/ha [7] | pest or weed control at 250 g/ha [8]
1 | CCc1ccc(Oc2ccc(Br)cc2Cl)cc1C1=C(O)C2C(C1=O)[C@H]1CC[C@@H]2CC1 (stereo partly drawn) [Compound A-28] | 0% | 0% | 20% | 0% | 0% | 0% | 80% | 0%
2 | CCc1ccc(Oc2ncc(Cl)cc2C(F)(F)F)cc1C1=C(O)CCC1=O [Compound A-78] | 70% | 100% | 100% | 70% | 90% | 90% | 100% | 100%
3 | CCc1ccc(Oc2ncc(Cl)cc2F)cc1C1=C(O)CCC1=O [Compound A-19] | 80% | 90% | 90% | 90% | 60% | 50% | 100% | 80%
4 | CCc1ccc(Oc2ccc(Cl)c(Cl)c2)cc1C1=C(O)CCC1=O [Compound A-17, 2-[5-(3,4-dichlorophenoxy)-2-ethylphenyl]cyclopentane-1,3-dione] | 20% | 10% | 30% | 10% | 10% | 30% | 70% | 10%
5 | CCc1ccc(Oc2ccc(C(F)(F)F)cn2)cc1C1=C(O)CCC1=O [Compound A-60] | 70% | 80% | 100% | 80% | 80% | 80% | 100% | 90%
6 | CCc1ccc(Oc2cnc3cc(Cl)ccc3n2)cc1C1=C(O)C2C(C1=O)[C@H]1CC[C@@H]2CC1 (stereo partly drawn) [Compound A-13, 2-[5-(6-chloroquinoxalin-2-yloxy)-2-ethylphenyl]hexahydro-4,7-ethanoindene-1,3-dione] | 20% | 60% | 80% | 50% | 100% | 90% | 100% | 90%
7 | CCc1ccc(Oc2ccc(Br)cc2)cc1C1=C(O)CCC1=O [Compound A-37] | 0% | 10% | 20% | 10% | 20% | 30% | 80% | 20%
8 | CCc1ccc(Oc2ncc(C(F)(F)F)cc2F)cc1C1=C(O)C2C(C1=O)[C@H]1CC[C@@H]2CC1 (stereo partly drawn) [Compound A-89] | 70% | 100% | 100% | 50% | 100% | 100% | 100% | 100%
9 | CCc1ccc(Oc2ccc(F)cc2)cc1C1=C(O)C2C(C1=O)[C@H]1CC[C@@H]2CC1 (stereo partly drawn) [Compound A-30] | 20% | 70% | 80% | 30% | 20% | 10% | 100% | 60%
10 | CCc1ccc(Oc2ccc(Cl)cc2F)cc1C1=C(O)[C@H]2[C@H]3CC[C@H](C3)[C@H]2C1=O [Compound A-25] | 30% | 70% | 70% | 20% | 40% | 60% | 90% | 50%
11 | CCc1ccc(Oc2ccc(Cl)cc2)cc1C1=C(O)CCC1=O [Compound A-39] | 30% | 0% | 40% | 20% | 0% | 10% | 60% | 10%
12 | CCc1ccc(Oc2ccc(Cl)cc2)cc1C1=C(O)[C@H]2[C@H]3CC[C@H](C3)[C@H]2C1=O [Compound A-24] | 30% | 40% | 50% | 10% | 70% | 60% | 100% | 60%
13 | CCc1ccc(Oc2ccc(Br)cc2)cc1C1=C(O)[C@H]2[C@@H](C1=O)[C@@H]1CC[C@H]2O1 [Compound A-4] | 90% | 90% | 100% | 80% | 100% | 90% | 100% | 100%
14 | CCc1ccc(Oc2ccccc2Cl)cc1C1=C(O)[C@H]2[C@@H](C1=O)[C@@H]1CC[C@H]2O1 [Compound A-8] | 0% | 40% | 40% | 0% | 20% | 20% | 70% | 20%
15 | CCc1ccc(Oc2ccc(C(F)(F)F)cc2[N+](=O)[O-])cc1C1=C(O)C2C(C1=O)[C@H]1CC[C@@H]2CC1 (stereo partly drawn) [Compound A-105] | 0% | 40% | 60% | 10% | 40% | 30% | 90% | 40%
